Assay results taken from patent US9828381B2, “Substituted pyrazolopyrimidines and method of use” (AbbVie Deutschland GmbH & Co. KG, priority 2015, dated 2017).

Target: GABA-B receptor (Rattus norvegicus (Rat), UniProt O88871+Q9Z0U4)
Experiment: [35S]GTPgS binding assay, rat cortical membranes, in presence of EC25 GABA
Format: biochemical
Details: rat brain cortex membranes; in presence of 1 μM GABA (EC25); positive allosteric modulation
Description: Preparation of Rat Brain Membranes for Native Receptor Assays
Membranes from rat brain cortex were prepared as described in detail by Olpe et al. and stored at concentrations of 1.66 mg/mL protein at −80° C. until required. (Olpe, H.-R, et al. Eur J Pharmacol 1990; 187: 27-38).
[^35S] GTPgS Binding Assay
The composition of the assay mixtures [in a final volume of 200 μL in 96-well U-bottom plates (Greiner) was as follows: 50 mM Tris-HCl buffer, pH 7.7, 10 mM MgCl2, 0.2 mM EGTA, 2 mM CaCl2, 100 mM NaCl, 20 µM guanosine 5′-diphosphate (Sigma), 0.3 nM [^35S]GTPgS (1250 Ci/mmol (PerkinElmer)), and the test compounds at increasing concentrations (from 10 nM up to […]), […] of rat cortical membranes, and a concentration of […], that has been observed in previous experiments to correspond to the EC25, a concentration that gives 25% of the maximal response of GABA. The samples were incubated at room temperature for 60 minutes on a shaker. The incubation was stopped by rapid vacuum filtration over glass-fiber filter plates (UniFilter-96 well, GF/B membrane plates, PerkinElmer) using a 96-well plate harvester (TOMTEK© Harvester). The UniFilter plate was washed five times with ice-cold wash buffer (50 mM Tris-HCl buffer, pH 7.7, 10 mM MgCl2, and 100 mM NaCl. After filtration the plate was dried for 90 minutes at 55° C. The plates were closed on the bottom with black sealing membranes, and liquid scintillation cocktail (35 μL, Betaplate Scint, PerkinElmer) was added to each well. After sealing the top of the plate, an additional incubation step of 90 minutes at room temperature followed before measuring the plate. The amount of membrane-bound [^35S]GTPgS was measured using a 96-well plate reader (Microbeta®, PerkinElmer). Nonspecific binding was measured in the presence of unlabeled 10 μM of GTPgS (Millipore) and without GABA. Basal binding was measured in the absence of 1 μM GABA, and maximal binding was measured in the presence of GABA using 1 mM GABA concentrations.
Data analysis. The concentration-response curves of compounds of the present disclosure in the presence of EC25 of GABA-B receptor agonist were generated using the GraphPad Prism® program (GraphPad Software, San Diego, Calif.). Data was normalized using basal binding as 0% and maximal binding as 100%. The curves were fitted by nonlinear regression allowing determination of EC50 values from sigmoidal dose-response curves. Each curve was performed using triplicate sample per date point and 10 concentrations.

Chain of GABA-B receptor (Q9Z0U4 17-960): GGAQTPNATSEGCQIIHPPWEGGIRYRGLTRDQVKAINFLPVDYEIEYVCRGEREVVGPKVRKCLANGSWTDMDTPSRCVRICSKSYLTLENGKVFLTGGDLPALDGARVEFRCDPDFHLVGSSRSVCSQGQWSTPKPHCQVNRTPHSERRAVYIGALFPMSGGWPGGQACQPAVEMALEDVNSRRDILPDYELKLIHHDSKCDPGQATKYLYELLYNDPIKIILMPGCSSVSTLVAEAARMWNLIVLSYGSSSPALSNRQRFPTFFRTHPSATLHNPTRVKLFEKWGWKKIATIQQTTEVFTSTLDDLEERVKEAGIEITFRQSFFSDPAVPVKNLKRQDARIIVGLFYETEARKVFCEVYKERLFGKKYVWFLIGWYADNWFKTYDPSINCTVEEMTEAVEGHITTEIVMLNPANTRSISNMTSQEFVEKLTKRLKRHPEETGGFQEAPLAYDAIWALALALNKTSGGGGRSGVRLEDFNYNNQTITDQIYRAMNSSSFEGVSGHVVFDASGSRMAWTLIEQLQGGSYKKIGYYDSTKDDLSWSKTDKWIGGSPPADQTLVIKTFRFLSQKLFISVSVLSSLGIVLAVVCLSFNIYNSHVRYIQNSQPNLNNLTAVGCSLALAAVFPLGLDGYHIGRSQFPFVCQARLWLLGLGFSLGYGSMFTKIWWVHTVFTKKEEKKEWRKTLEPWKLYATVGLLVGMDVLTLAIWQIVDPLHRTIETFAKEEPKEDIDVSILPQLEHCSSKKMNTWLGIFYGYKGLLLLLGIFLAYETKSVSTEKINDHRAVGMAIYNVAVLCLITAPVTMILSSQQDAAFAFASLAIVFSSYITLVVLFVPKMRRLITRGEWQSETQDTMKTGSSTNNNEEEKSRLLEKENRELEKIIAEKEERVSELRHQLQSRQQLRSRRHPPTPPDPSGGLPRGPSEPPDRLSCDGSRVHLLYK
Chain of GABA-B receptor (O88871 41-940): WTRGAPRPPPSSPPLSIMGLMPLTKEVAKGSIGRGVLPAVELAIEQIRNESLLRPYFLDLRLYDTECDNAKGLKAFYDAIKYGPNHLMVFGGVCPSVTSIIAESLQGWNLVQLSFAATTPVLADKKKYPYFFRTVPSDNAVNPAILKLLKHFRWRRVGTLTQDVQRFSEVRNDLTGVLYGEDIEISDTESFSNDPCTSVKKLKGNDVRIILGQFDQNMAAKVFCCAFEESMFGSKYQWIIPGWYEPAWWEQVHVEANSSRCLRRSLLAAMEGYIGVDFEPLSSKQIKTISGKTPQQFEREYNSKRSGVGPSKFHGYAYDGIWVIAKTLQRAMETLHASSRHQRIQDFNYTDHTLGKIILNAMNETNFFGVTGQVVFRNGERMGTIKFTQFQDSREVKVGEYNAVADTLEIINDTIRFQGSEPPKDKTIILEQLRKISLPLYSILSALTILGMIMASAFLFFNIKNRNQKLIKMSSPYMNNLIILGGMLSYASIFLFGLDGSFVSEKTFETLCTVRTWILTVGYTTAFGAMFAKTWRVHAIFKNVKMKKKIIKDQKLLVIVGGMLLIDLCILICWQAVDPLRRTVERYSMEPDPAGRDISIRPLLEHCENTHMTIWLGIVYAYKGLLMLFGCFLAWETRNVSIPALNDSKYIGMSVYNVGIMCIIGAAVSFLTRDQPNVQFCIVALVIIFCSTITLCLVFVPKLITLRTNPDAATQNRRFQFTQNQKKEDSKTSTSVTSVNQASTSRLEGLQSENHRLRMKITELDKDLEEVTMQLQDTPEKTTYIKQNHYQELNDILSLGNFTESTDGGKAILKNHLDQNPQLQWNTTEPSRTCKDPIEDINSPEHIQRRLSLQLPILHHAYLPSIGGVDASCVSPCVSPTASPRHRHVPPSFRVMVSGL

Structure (SMILES) | EC50
Cc1cc(NC2CC(F)C2)n2nc(C(C)c3ccc(Cl)cn3)cc2n1 (stereo not drawn) [Example 9-8, 2-[1-(5-chloropyridin-2-yl)ethyl]-N-(3-fluorocyclobutyl)-5-methylpyrazolo[1,5-a]pyrimidin-7-amine] | 9300 nM
Cc1cc(N2CC[C@@H](NS(C)(=O)=O)C2)n2nc(Cc3ccc(Cl)cc3)cc2n1 [Example 10-1, N-{(3R)-1-[2-(4-chlorobenzyl)-5-methylpyrazolo[1,5-a]pyrimidin-7-yl]pyrrolidin-3-yl}methanesulfonamide] | > 10000 nM
Cc1cc(NC2(C)CC2)n2nc(Cc3ccc(Cl)cc3)cc2n1 [Example 1-3, 2-(4-chlorobenzyl)-5-methyl-N-(1-methylcyclopropyl)pyrazolo[1,5-a]pyrimidin-7-amine] | 2550 nM
Cc1cc(N2CCCC(F)(F)C2)n2nc(C(C)c3ccc(Cl)cn3)cc2n1 (stereo not drawn) [Example 9-4, 2-[1-(5-chloropyridin-2-yl)ethyl]-7-(3,3-difluoropiperidin-1-yl)-5-methylpyrazolo[1,5-a]pyrimidine] | 628 nM
Cc1cc(N2CCCCC2CCO)n2nc(CC34CC5CC(CC(C5)C3)C4)cc2n1 (stereo not drawn) [Example 7-1, 2-{1-[5-methyl-2-(tricyclo[3.3.1.1^3′]dec-1-ylmethyl)pyrazolo[1,5-a]pyrimidin-7-yl]piperidin-2-yl}ethanol] | 1080 nM
Cc1cc(N2CCC(F)(F)C2)n2nc(C(C)c3ccc(C(F)(F)F)cc3)cc2n1 (stereo not drawn) [Example 8-15, 7-(3,3-difluoropyrrolidin-1-yl)-5-methyl-2-{1-[4-(trifluoromethyl)phenyl]ethyl}pyrazolo[1,5-a]pyrimidine] | 570 nM
CC(=O)N[C@@H]1CCN(c2cc(C)nc3cc(C(C)c4ccc(C(F)(F)F)cc4)nn23)C1 (stereo partly drawn) [Example 8-16, N-[(3R)-1-(5-methyl-2-{1-[4-(trifluoromethyl)phenyl]ethyl}pyrazolo[1,5-a]pyrimidin-7-yl)pyrrolidin-3-yl]acetamide] | 2180 nM

Now from value to compound:

EC50 | Structure (SMILES)
604 nM | Cc1cc(N2CCC3(CC2)COC3)n2nc(C(C)c3ccc(Cl)cc3)cc2n1 (stereo not drawn) [Example 2-9, 2-[1-(4-chlorophenyl)ethyl]-5-methyl-7-(2-oxa-7-azaspiro[3.5]non-7-yl)pyrazolo[1,5-a]pyrimidine]
586 nM | Cc1cc(NCC2CC(F)(F)C2)n2nc(C(C)c3ccc(Cl)cc3)cc2n1 (stereo not drawn) [Example 2-16, 2-[1-(4-chlorophenyl)ethyl]-N-[(3,3-difluorocyclobutyl)methyl]-5-methylpyrazolo[1,5-a]pyrimidin-7-amine]
> 10000 nM | Cc1cc(N2CCCCC2=O)n2nc(Cc3ccc(Cl)cc3)cc2n1 [Example 1-10, 1-[2-(4-chlorobenzyl)-5-methylpyrazolo[1,5-a]pyrimidin-7-yl]piperidin-2-one]
> 10000 nM | CC(=O)N[C@H]1CCN(c2cc(C)nc3cc(Cc4ccc(Cl)cc4)nn23)C1 [Example 1-17, N-{(3S)-1-[2-(4-chlorobenzyl)-5-methylpyrazolo[1,5-a]pyrimidin-7-yl]pyrrolidin-3-yl}acetamide]
8 nM | CCC(c1ccc(Cl)cc1)c1cc2nc(C)cc(N3CCCCC3CCO)n2n1 (stereo not drawn) [Example 3-1, 2-(1-{2-[1-(4-chlorophenyl)propyl]-5-methylpyrazolo[1,5-a]pyrimidin-7-yl}piperidin-2-yl)ethanol]
435 nM | Cc1cc(NC2(C)CC2)n2nc(C(C)c3ccc(Cl)cc3)cc2n1 (stereo not drawn) [Example 2-2, 2-[1-(4-chlorophenyl)ethyl]-5-methyl-N-(1-methylcyclopropyl)pyrazolo[1,5-a]pyrimidin-7-amine]
2180 nM | CC(=O)N[C@H]1CCN(c2cc(C)nc3cc(C(C)c4ccc(Cl)cc4)nn23)C1 (stereo partly drawn) [Example 2-17, N-[(3S)-1-{2-[1-(4-chlorophenyl)ethyl]-5-methylpyrazolo[1,5-a]pyrimidin-7-yl}pyrrolidin-3-yl]acetamide]
> 10000 nM | Cc1cc(N2CC[C@H]2C(N)=O)n2nc(C(C)c3ccc(C(F)(F)F)cc3)cc2n1 (stereo partly drawn) [Example 8-1, (2S)-1-(5-methyl-2-{1-[4-(trifluoromethyl)phenyl]ethyl}pyrazolo[1,5-a]pyrimidin-7-yl)azetidine-2-carboxamide]
